This is an account of results in US9170264B2, “Methods of monitoring for adherence to aripiprazole therapy” (Ameritox, Ltd., priority 2013, dated 2015).

A short description of series [1]: Levels of OPC3373, aripiprazole and dehydroaripiprazole in urine of humans taking chronic doses of aripiprazole (Example 1). Format: in vivo, human. To be noted: for Levels in Human Urine: individual specimens, chronic doses of aripiprazole, LOQ OPC3373 100 ng/mL, dehydroaripiprazole 5 ng/mL, aripiprazole 5 ng/mL. As for the experimental part: (§1) The concentration of any analyte described in the present disclosure may be determined (e.g., measured) by any suitable quantification method. In some embodiments, the concentration of an analyte (e.g., aripiprazole, dehydroaripiprazole, and/or OPC3373) is measured by tandem liquid chromatography-mass spectrometry-mass spectrometry (“LC/MSMS”). In some embodiments, the concentration of an analyte (e.g., aripiprazole, dehydroaripiprazole, and/or OPC3373) is measured by tandem liquid chromatography-High Resolution mass spectrometry (Time of Flight (TOF)) (“LC/MS(TOF)”). In some embodiments, the concentration of an analyte (e.g., aripiprazole, dehydroaripiprazole, and/or OPC3373) is measured by direct injection mass spectrometry-mass spectrometry ([…]) e.g., such systems as RapidFire™ (Agilent) or Laser Diode Thermal Desorption (“LDTD”) (Phytronix) to introduce samples into the mass spectrometer; either triple quadrupole (i.e., MSMS) or exact mass (i.e., Time of Flight, Orbitrap, etc.) instruments
The appearance of OPC3373 (4-[(2-Oxo-1,2,3,4-tetrahydro-7-quinolinyl)oxy]butanoic acid, BMS-337047) as the major aripiprazole metabolite in the urine can be used to help monitor patient adherence to aripiprazole therapy. While analysis of both aripiprazole and the plasma metabolite, dehydroaripiprazole, can be used to monitor patient adherence, the relatively low levels of these molecules in the urine frequently results in “false negatives” in patients known to be taking aripiprazole.

Series [2] in a line: Urine testing for compliance over 5 days, patients prescribed 2 mg/day Abilify (Example 8). Format: in vivo, human. Details: Urine concentration, individual subject: unit not given here. As for the experimental part: as §1
The urine of 15 patients who were prescribed 2 mg of Abilify® (aripiprazole) was tested for compliance over 5 days (Table 14). […] Without OPC3373, only 24% were determined to be positive with patients just being below the reporting cutoffs for both aripiprazole and dehydroaripiprazole. Thus, use of OPC3373 as a urine biomarker at this lower dose makes compliance monitoring for Abilify® possible. […] However, OPC3373 in subject M confirmed the subject's adherence to aripirazole therapy despite the low observed creatinine level.

Series [3] can be described thus: Urine testing for compliance over 5 days, patients prescribed 5 mg/day Abilify (Example 7). To be noted: for Aripiprazole (urine test result) / Dehydroaripiprazole (urine test result): human urine, patients prescribed 5 mg/day Abilify. Format: in vivo, human. Details: Aripiprazole (urine test result) / Dehydroaripiprazole (urine test result): unit not given here. How it is done: as §1
The urine of 25 patients who were prescribed 5 mg of Abilify® (aripiprazole) was tested for compliance over 5 days (Table 11). […] Without OPC3373, only 47% were determined to be positive with patients just being below the reporting cutoffs for both aripiprazole and dehydroaripiprazole. Thus, use of OPC3373 as a urine biomarker at this lower dose adds a great deal of value to compliance monitoring for Abilify®.

The conditions of series [4]: cited from earlier work.
Series [5] in a line: Urine testing of aripiprazole positive patients in a controlled study, LC/MSMS (Example 2). It is filed as in vivo, human. To be noted: 5 mg q day, individual samples, LLOQ aripiprazole 5, dehydroaripiprazole 5, OPC3373 25 ng/mL. How it is done:
as §1
An additional set of aripiprazole positive patients was monitored for levels of aripiprazole, dehyrdroaripiprazole, and OPC3373 in their urine.
Dehydroaripiprazole: 5 ng/mL
These analyses were completed using LC/MSMS.

Series [6] can be described thus: Urine testing for compliance over 5 days, patients prescribed 15 mg/day Abilify (Example 5). It is filed as in vivo, human. Details: urine concentration: unit not given here. Conditions: for urine concentration, Avg / urine concentration, Max / urine concentration, Min: n 69 samples. How it is done:
as §1
The urine of 23 patients who were prescribed 15 mg of Abilify® (aripiprazole) was tested for compliance over 5 days (Table 7). […] Without OPC3373, only 78% were determined to be positive with patients just being below the reporting cutoffs for both aripiprazole and dehydroaripiprazole. […] Thus, use of OPC3373 as a urine biomarker at this dose adds value to compliance monitoring for Abilify®.

Series [7] in a line: Urine testing for compliance over 5 days, patients prescribed 30 mg/day Abilify (Example 3). Conditions: for urine concentration: 30 mg/day Abilify, individual subjects. It is filed as in vivo, human. How it is done:
as §1
The urine of 5 patients who were prescribed 30 mg of Abilify® (aripiprazole) was tested for compliance over 5 days (Table 3). […] Without OPC3373, only 93% were determined to be positive with one patient either having stopped taking their medicine between day 4 and 5 or just being below the reporting cutoffs for both aripiprazole and dehydroaripiprazole. Thus, use of OPC3373 as a urine biomarker even at this relatively high dose adds value to compliance monitoring for Abilify®.

Series [8] can be described thus: Urine testing for compliance over 5 days, patients prescribed 20 mg/day Abilify (Example 4). To be noted: n 66 samples. It is filed as in vivo, human. As for the experimental part:
as §1
The urine of 22 patients who were prescribed 20 mg of Ability (e.g., aripiprazole) was tested for compliance over 5 days (Table 5). […] Without OPC3373, only 85% were determined to be positive with patients just being below the reporting cutoffs for both aripiprazole and dehydroaripiprazole. Thus, use of OPC3373 as a urine biomarker even at this relatively high dose adds value to compliance monitoring for Abilify®.

Series [9] can be described thus: Urine testing for compliance over 5 days, patients prescribed 10 mg/day Abilify (Example 6). Format: in vivo, human. Conditions: n 111 samples. As for the experimental part:
as §1
The urine of 37 patients who were prescribed 10 mg of Abilify® (aripiprazole) was tested for compliance over 5 days (Table 9). […] Without OPC3373, only 61% were determined to be positive with patients just being below the reporting cutoffs for both aripiprazole and dehydroaripiprazole. Thus, use of OPC3373 as a urine biomarker at this dose adds value to compliance monitoring for Abilify®.

[10] abbreviates: Day 1, subjects A-O (one value per subject).
Where [11] appears, read: Day 4, subjects A-O (one value per subject).
Where [12] appears, read: Day 5, subjects A-O (one value per subject).

Structures are written as SMILES. “And” between values parts separate entries of the source, which are not always exact repeats. Equal entries are not always repeated.

For the compound `O=C1CCc2ccc(OCCCCN3CCN(c4cccc(Cl)c4Cl)CC3)cc2N1` [Aripiprazole], the “Levels in Human Urine” value in series [1] is 9.5 ng/mL and <5.0 ng/mL (9×) and 32.4 ng/mL and 9.7 ng/mL and 53.3 ng/mL and 84.9 ng/mL and 38.7 ng/mL and 10 ng/mL and 0.0 ng/mL (2×) and 17.4 ng/mL and 17.9 ng/mL and 5.0 ng/mL and 39.5 ng/mL. Further, in series [1] (over 22 specimens, * below LOQ), the “Range of levels in Human Urine” value was 5 to 100 ng/mL. Besides, the “Urine concentration, individual subject” value is 9.0 and 0 (6×) and 7.9 in [2] (setting [10]); 0 in series [2] (setting [11]); 10.5 and 0 (4×) and 30.9 and 6.1 in series [2] (setting [12]). Further, the “Aripiprazole (urine test result)” value in series [3] (Day 1) was 10.1 and 0 (13×) and 9 and 7.5 and 5.0 and 9.7 and 8.5 and 8.8 and 8.4 and 13.1 and 6.4 and 38.4 and 5.4; in series [3] (Day 4) it was 21.5 and 11.3 and 6.6 (2×) and 0.0 (2×) and 5.2 and 0 (9×) and 32.4 and 13.1 and 15.6 and 6.5 and 10.3 and 7.5 and 5.5 and 9.5 and 11.8; in series [3] (Day 5), 10.2 and 5.1 and 7.3 and 0 (15×) and 14.9 and 0.0 and 5.3 and 10.1 and 12.7 and 9.7 and 31.6. Besides, the “oral dose excreted as unchanged aripiprazole in faeces” value in series [4] (faeces, humans) is listed as 8-18%. Further, the “time of dosing until steady state serum concentrations are achieved” value in [4] (in vivo) is reported as “two”. The “share of a dose represented in plasma” value in series [4] was 57%. The “oral dose excreted as unchanged aripiprazole in urine” value in [4] (urine, humans) was “Less than 1%”. Also, the “Abilify Urine Results” value in series [5] is 0 ng/mL and 11.1 ng/mL and 22.3 ng/mL and 9.4 ng/mL and 19.4 ng/mL and 11.6 ng/mL. In addition, the urine concentration in series [6] (Day 1, individual subjects) is 52.2 and 0 (6×) and 5.3 and 15.1 and 31.2 and 15.4 and 17.9 and 20.0 and 31.5 and 9.8 and 8.9 and 17.5 and 15.0 and 10.1 and 5.4 and 19.4 and 27.6 and 14.6; in [6] (Day 4, individual subjects) it was 31.7 and 19.5 and 39.3 and 10.2 and 8.9 and 12.3 and 0 (8×) and 40 and 26.7 and 45.3 and 14.5 and 6.2 and 5.7 and 7.9 and 62.3 and 19.0; in series [6] (Day 5, individual subjects), 22.8 and 0 (5×) and 16.4 and 9.3 and 6.9 and 32.1 and 37.1 and 16.7 and 7.4 and 57.3 and 12.3 and 14.2 (2×) and 7.5 and 17.7 and 25.3 and 5.1 and 76.7 and 9.6. Besides, the “urine concentration, Avg” value in [6] is 15.29. Moreover, in series [6], the “urine concentration, Max” value came out at 76.70. Besides, the “urine concentration, Min” value in series [6] is given as 0.00.

For the compound `O=c1ccc2ccc(OCCCCN3CCN(c4cccc(Cl)c4Cl)CC3)cc2[nH]1` [Dehydroaripiprazole, dehydroaripiprazole], the urine concentration was 11.5 and 29.2 and 6.8 and 56.9 and 14.1 in series [7] (Day 1); 14.1 and 84.8 and 11.0 and 36.3 and 16.6 in series [7] (Day 4); 0 and 17.0 and 8.9 and 89.7 and 28.1 in [7] (Day 5); 27.9 and 0 (6×) and 21 and 10.1 and 5.9 and 11.4 (2×) and 12.8 and 25.4 and 12.3 and 6.7 and 6.1 and 5.5 and 9.6 and 5.2 and 5.1 and 14.6 and 6.6 in series [6] (Day 1, individual subjects); 16.8 and 7.4 and 20.7 and 7.5 and 0 (11×) and 24 and 21.0 and 10.1 and 25.8 and 8.6 and 8.1 and 14.3 and 8.0 in series [6] (Day 4, individual subjects); 12.8 and 0 (9×) and 5.2 and 17.0 and 24.1 (2×) and 23.1 and 23.9 and 33.3 and 12.3 and 6.5 and 11.2 and 16.6 and 0.0 and 24.9 in series [6] (Day 5, individual subjects). The “urine concentration, Avg” value in [7] (30 mg/day, n 15 samples) is recorded as 28.33 ng/mL; in series [2] (n 45 samples) it was 0.24; in [3] (5 mg/day Abilify, n 75 samples) it was 1.96; in [8], 12.30; in series [6], 8.76. In addition, the “urine concentration, Max” value in [7] (30 mg/day, n 15 samples) is 89.70 ng/mL; in series [2] (n 45 samples), 10.7; in [3] (5 mg/day Abilify, n 75 samples) it was 17.1; in [8], 91.40; in series [9], 64.8; in [6], 33.30. Besides, the “urine concentration, Min” value in series [7] (30 mg/day, n 15 samples) came out at 0.00 ng/mL; in [2] (n 45 samples), 0; in series [3] (5 mg/day Abilify, n 75 samples) it was 0; in [8], 0.00; in series [9], 0; in series [6] it was 0.00. Besides, the “Levels in Human Urine” value in series [1] is <5.0 ng/mL (7×) and 5.1 ng/mL (2×) and 14.1 ng/mL and 0.0 ng/mL (5×) and 17.8 ng/mL and 20.1 ng/mL and 5.9 ng/mL and 0 ng/mL and 15.8 ng/mL and 8.8 ng/mL and 56.1 ng/mL. Further, the “Range of levels in Human Urine” value in [1] (over 22 specimens, * below LOQ) lay within 5 to 75 ng/mL. Moreover, the “Urine drug/metabolite concentration, Extremes” value in [2] (Day 1) was 0-7.4; in [2] (Day 4), 0-0; in series [2] (Day 5) it was 0-0; in [3] (5 mg/day Abilify, Day 1), 0-6.5; in series [3] (5 mg/day Abilify, Day 4), 0-6.1; in series [3] (5 mg/day Abilify, Day 5), 0-8.2. Moreover, the “Urine drug/metabolite concentration, Mean +/- SD” value was 0.5 +/− 1.9 in series [2] (Day 1); 0 +/− 0 in series [2] (Day 4); 0 +/− 0 in [2] (Day 5); 2.3 +/− 3.2 in series [3] (5 mg/day Abilify, Day 1). Further, the “Urine drug/metabolite concentration, Median” value in series [2] (Day 1) was 0; in series [2] (Day 4) it was 0; in series [2] (Day 5), 0; in series [3] (5 mg/day Abilify, Day 1), 0; in [3] (5 mg/day Abilify, Day 4), 0; in series [3] (5 mg/day Abilify, Day 5), 0. Also, the “Urine concentration, individual subject” value in [2] (setting [10]) is 0; in series [2] (setting [11]), 0; in series [2] (setting [12]), 0 (13×) and 10.7 and 0.0. Further, the “Dehydroaripiprazole (urine test result)” value in [3] (Day 1) is 6.6 and 0 (20×) and 5.1 and 7.4 and 5.3 and 8.7; in series [3] (Day 4), 10.2 and 0 (19×) and 17.1 and 8.0 and 7.5 and 7.4 and 8.4; in series [3] (Day 5), 5.7 and 0 (19×) and 5.2 and 5.5 and 15.8 and 8.2 and 15.1. In series [4], the “share of a dose represented in plasma” value was 20%. Further, the “urine concentration, avg” value in series [9] was 6.27. Also, the “Abilify Urine Results” value in [5] was 0 ng/mL (3×) and 6.5 ng/mL and 5.2 ng/mL and 6.4 ng/mL.

As to `O=C(O)CCCOc1ccc2c(c1)NC(=O)CC2` [OPC3373, 4-[(2-Oxo-1,2,3,4-tetrahydro-7-quinolinyl)oxy]butanoic acid], the “Range of levels in Human Urine” value in series [1] (human, in vivo) is 10*-1500 ng/mL. The “share of a dose represented in plasma” value in series [4] is 2%. Further, in [4] (urine, reported by Baselt), the “recovered from a dose as urinary metabolite” value is listed as 19%.
